Active and inactive are the calls of the source. The calls are words filed in the database; no cut-off is given here.
Key:
Mus musculus [1] = assay: Effect on CNS in Mus musculus Swiss (mouse) assessed as reversal of resperine-induced sedation at 75 umol/kg, ip; format: ADME, organism-based, Central nervous system; conditions: in vivo
Mus musculus [2] = assay: Effect on CNS in Mus musculus Swiss (mouse) assessed as gross behavioural effects at 75 umol/kg, ip; format: ADME, organism-based, Central nervous system; conditions: in vivo
Mus musculus [3] = assay: Effect on CNS in Mus musculus Swiss (mouse) assessed as reversal of resperine-induced ptosis at 75 umol/kg, ip; format: ADME, organism-based, Central nervous system; conditions: in vivo
Mus musculus [4] = assay: Anorexigenic activity in Mus musculus Swiss (mouse) at 75 umol/kg, ip measured for 15 min relative to control; format: functional
Mus musculus [5] = assay: Antidepressant activity in Mus musculus Swiss (mouse) at 75 umol/kg, ip; format: functional, organism-based

Row | SMILES | Activity (Mus musculus [1]) | Activity (Mus musculus [2]) | Activity (Mus musculus [3]) | Activity (Mus musculus [4]) [%] | Activity (Mus musculus [5])
1 | CC(=O)c1ccc(OCC(O)CN(C)CCC(Oc2ccc(C(F)(F)F)cc2)c2ccccc2)cc1 (stereo not drawn) | Non-toxic | Non-toxic | Non-toxic | 32 | inactive
2 | CN(CCC(Oc1ccc(C(F)(F)F)cc1)c1ccccc1)CC(O)COc1ccc(C(F)(F)F)cc1 (stereo not drawn) | Non-toxic | Non-toxic | Non-toxic | 32 | inactive
3 | CNCCC(Oc1ccc(C(F)(F)F)cc1)c1ccccc1 (stereo not drawn) [FLUOXETINE] | 100% | – | 100% | 72 | –
4 | CN(CCC(Oc1ccc(C(F)(F)F)cc1)c1ccccc1)CC(O)COc1cccc(C(F)(F)F)c1 (stereo not drawn) | Non-toxic | Non-toxic | Non-toxic | 32 | inactive
5 | CN(CCC(Oc1ccc(C(F)(F)F)cc1)c1ccccc1)CC(O)COc1ccc(Br)cc1 (stereo not drawn) | Non-toxic | Non-toxic | Non-toxic | 60 | inactive
6 | CN(CCC(Oc1ccc(C(F)(F)F)cc1)c1ccccc1)CC(O)COc1ccccc1 (stereo not drawn) | Non-toxic | Non-toxic | Non-toxic | 52 | inactive
7 | COc1ccc(OCC(O)CN(C)CCC(Oc2ccc(C(F)(F)F)cc2)c2ccccc2)cc1 (stereo not drawn) | Non-toxic | Non-toxic | Non-toxic | 52 | inactive
8 | CN(CCC(Oc1ccc(C(F)(F)F)cc1)c1ccccc1)CC(O)COc1ccc(C#N)cc1 (stereo not drawn) | Non-toxic | Non-toxic | Non-toxic | 72 | Active
9 | COc1ccccc1OCC(O)CN(C)CCC(Oc1ccc(C(F)(F)F)cc1)c1ccccc1 (stereo not drawn) | Non-toxic | Non-toxic | Non-toxic | 56 | inactive
10 | Cc1ccccc1OCC(O)CN(C)CCC(Oc1ccc(C(F)(F)F)cc1)c1ccccc1 (stereo not drawn) | Non-toxic | Non-toxic | Non-toxic | 60 | inactive
11 | CN(CCC(Oc1ccc(C(F)(F)F)cc1)c1ccccc1)CC(O)COc1ccc(C=O)cc1 (stereo not drawn) | Non-toxic | Non-toxic | Non-toxic | 40 | inactive
12 | CCC(=O)c1ccc(OCC(O)CN(C)CCC(Oc2ccc(C(F)(F)F)cc2)c2ccccc2)cc1 (stereo not drawn) | Non-toxic | Non-toxic | Non-toxic | 36 | inactive
13 | CN(CCC(Oc1ccc(C(F)(F)F)cc1)c1ccccc1)CC(O)COc1ccc2ccccc2c1 (stereo not drawn) | Non-toxic | Non-toxic | Non-toxic | 40 | inactive
14 | CCNc1ccc(OCC(O)CN(C)CCC(Oc2ccc(C(F)(F)F)cc2)c2ccccc2)cc1 (stereo not drawn) | Non-toxic | Non-toxic | Non-toxic | 60 | inactive
15 | CN(CCC(Oc1ccc(C(F)(F)F)cc1)c1ccccc1)CC(O)COc1ccc(Cl)cc1 (stereo not drawn) | Non-toxic | Non-toxic | Non-toxic | 28 | inactive
16 | CC(=O)Nc1ccc(OCC(O)CN(C)CCC(Oc2ccc(C(F)(F)F)cc2)c2ccccc2)cc1 (stereo not drawn) | Non-toxic | Non-toxic | Non-toxic | 60 | inactive
